From article PMC8230315, “A Pan-Inhibitor for Protein Arginine Methyltransferase Family Enzymes” (Biomolecules, 2021)
Entries after “also recorded” stand apart in the source; their conditions may differ. Like-named read-outs stand apart in the source and are kept apart here.

Legend:
Type in all cases: biochemical
PRMT1 [1] = biological target: T1, PRMT1 (Homo sapiens, UniProt Q99873); assay: Inhibition mechanism kinetic analysis, SAHH-coupled fluorescence assay with PRMT1
Protocol: The fluorescence-based SAHH-coupled assay was employed for the enzyme kinetic study. Varying concentrations of SAM (from 0.5 to 8 Km) with 5 μM fixed concentration of H4-21 or varying concentration of H4-21 (from 0.5 to 8 Km) with 10 μM fixed concentration of SAM was included in reactions with a series concentration of compounds. All the IC50 values were determined in triplicate. Fluorescence was monitored on a BMG CLARIOstar microplate with excitation at 380 nm and emission at 505 nm. Data were processed using GraphPad Prism software 7.0.

PRMT5/MEP50 Complex = biological target: T2, PRMT5/MEP50 Complex (Homo sapiens, UniProt O14744); assay: HotSpot radioisotope 3H-AdoMet methyltransferase assay, PRMT5/MEP50
T2 construct: purchased Reaction Biology
Protocol: (§1) Future studies will focus on obtaining structural information of II757 bound to PRMTs to inform how to connect to a substrate portion to increase both potency and selectivity for each PRMT.
(§2) Figure 6 Selectivity of II757 against the panel of PRMTs. II757 was tested in 10 doses with threefold serial dilution in the HotSpot methyltransferase assay at reaction biology. TEXT PRINTED IN THE PICTURE: II757: IC50 (nM) PRMT1: 16.4; IC50 (nM) PRMT3: 321; IC50 (nM) PRMT4: 5.05; IC50 (nM) PRMT5/MEP50 Complex: 18.2; IC50 (nM) PRMT5 (C449S)/MEP50: 36.6; IC50 (nM) PRMT6: 30.5; IC50 (nM) PRMT7: 555; IC50 (nM) PRMT8: 32.1

PRMT5 (C449S)/MEP50 = biological target: T3, PRMT5 (C449S)/MEP50 (Homo sapiens, UniProt O14744, C449S); assay: HotSpot radioisotope 3H-AdoMet methyltransferase assay, PRMT5 (C449S)/MEP50
T3 construct: purchased Reaction Biology
Protocol: as §1, §2

PRMT6 = biological target: T4, PRMT6 (Homo sapiens, UniProt Q96LA8); assay: HotSpot radioisotope 3H-AdoMet methyltransferase assay, PRMT6
T4 construct: purchased Reaction Biology
Protocol: as §1, §2

PRMT1 [2] = biological target: T1, PRMT1; assay: SAHH-coupled fluorescence assay, PRMT1 inhibition
Protocol: A fluorescence-based SAHH-coupled assay was used to evaluate the IC50 values of inhibitors by monitoring the production of SAH from SAM after methylation. […] The fluorescence signal was monitored on a BMG CLARIOstar microplate reader with excitation at 400 nm and emission at 465 nm for 18 min. Data were processed using GraphPad Prism software 7.0. All experiments were performed in duplicate.
The fluorescence signal was monitored on a BMG CLARIOstar microplate reader with excitation at 400 nm and emission at 465 nm for 18 min. Data were processed using GraphPad Prism software 7.0. All experiments were performed in duplicate. […].

TbPRMT7 = biological target: T5, TbPRMT7 (Trypanosoma brucei brucei, UniProt Q582G4); assay: Selectivity SAHH-coupled fluorescence assay, TbPRMT7; conditions: at 1.2 μM
T5 construct: made in house
From the text: (§3) We chose the top four potent compounds (6b and 6l–n) to investigate their selectivities against several in-house methyltransferases including protein arginine methyltransferase TbPRMT7, two members of the protein lysine methyltransferase PKMT (G9a and SETD7), protein N-terminal methyltransferase 1 (NTMT1), and a small molecule methyltransferase nicotinamide N-methyltransferase (NNMT), all of which have a SAM binding site.
(§4) A fluorescence-based SAHH-coupled assay was applied to study the effect of the compound on methyltransferase activity of PRMT7, NTMT1, SETD7, G9a, NNMT, and SAHH. For PRMT7, the assay was performed in a final well volume of 100 μL: 25 mM Tris (pH = 7.5), 50 mM KCl, 0.01% Triton X-100, 5 μM SAHH, 0.2 μM PRMT7, 3 μM AdoMet, and 15 μM ThioGlo1. After incubation for 10 min with the inhibitor, reactions were initiated by the addition of 60 μM H4-21 peptide, and the reaction was monitored for 15 min. […] After incubation for 10 min with the inhibitor, reactions were initiated by the addition of 0.5 μM GPKRIA peptide, and the reaction was monitored for 15 min. […] After incubation for 10 min with the inhibitor, reactions were initiated by the addition of 90 μM H3-21 peptide, and the reaction was monitored for 15 min. […] After incubation for 10 min with the inhibitor, reactions were initiated by the addition of 10 μM nicotinamide, and the reaction was monitored for 18 min. […]

SETD7 = biological target: T6, SETD7 (Homo sapiens, UniProt Q8WTS6); assay: Selectivity SAHH-coupled fluorescence assay, SETD7
T6 construct: made in house
T6 sequence (Q8WTS6 1-366): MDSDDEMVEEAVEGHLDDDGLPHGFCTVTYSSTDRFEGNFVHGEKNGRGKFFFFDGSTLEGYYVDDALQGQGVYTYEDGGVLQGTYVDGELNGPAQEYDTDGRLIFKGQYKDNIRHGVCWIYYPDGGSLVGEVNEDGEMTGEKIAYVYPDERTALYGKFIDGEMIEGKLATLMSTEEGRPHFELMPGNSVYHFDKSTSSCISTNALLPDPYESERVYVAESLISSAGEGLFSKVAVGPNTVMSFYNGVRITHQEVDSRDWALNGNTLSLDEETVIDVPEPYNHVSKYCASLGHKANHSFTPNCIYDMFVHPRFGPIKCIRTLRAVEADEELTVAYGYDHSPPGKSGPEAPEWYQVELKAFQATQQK
From the text: as §3
A fluorescence-based SAHH-coupled assay was applied to study the effect of the compound on methyltransferase activity of PRMT7, NTMT1, SETD7, G9a, NNMT, and SAHH. For PRMT7, the assay was performed in a final well volume of 100 μL: 25 mM Tris (pH = 7.5), 50 mM KCl, 0.01% Triton X-100, 5 μM SAHH, 0.2 μM PRMT7, 3 μM AdoMet, and 15 μM ThioGlo1. After incubation for 10 min with the inhibitor, reactions were initiated by the addition of 60 μM H4-21 peptide, and the reaction was monitored for 15 min. For NTMT1, the assay was performed in a final well volume of 100 μL: 25 mM Tris (pH = 7.5), 50 mM KCl, 0.01% Triton X-100, 5 μM SAHH, 0.1 μM NTMT1, 3 μM AdoMet, and 10 μM ThioGlo4. After incubation for 10 min with the inhibitor, reactions were initiated by the addition of 0.5 μM GPKRIA peptide, and the reaction was monitored for 15 min. For SETD7, the assay was performed in a final well volume of 100 μL: 25 mM potassium phosphate buffer (pH = 7.6), 0.01% Triton X-100, 5 μM SAHH, 1 μM SETD7, 2 μM AdoMet, and 10 μM ThioGlo1. After incubation for 10 min with the inhibitor, reactions were initiated by the addition of 90 μM H3-21 peptide, and the reaction was monitored for 15 min. For G9a, the assay was performed in a final well volume of 100 μL: 25 mM potassium phosphate buffer (pH = 7.6), 1 mM EDTA, 2 mM MgCl2, 0.01% Triton X-100, 5 μM SAHH, 0.1 μM His-G9a, 10 μM AdoMet, and 10 μM ThioGlo4. For NNMT, the assay was performed in a final well volume of 100 μL: 25 mM Tris (pH = 7.5), 50 mM KCl, 0.01% Triton X- 100, 5 μM SAHH, 0.1 μM NNMT, 10 μM AdoMet, and 10 μM ThioGlo1. After incubation for 10 min with the inhibitor, reactions were initiated by the addition of 10 μM nicotinamide, and the reaction was monitored for 18 min. The inhibitors were added at five concentrations: 100, 33.3, 11.1, 3.7, and 1.2 μM.

G9a = assay: Selectivity SAHH-coupled fluorescence assay, G9a
From the text: as §3, §4

T1 sequence (Q99873 whole entry, species assumed): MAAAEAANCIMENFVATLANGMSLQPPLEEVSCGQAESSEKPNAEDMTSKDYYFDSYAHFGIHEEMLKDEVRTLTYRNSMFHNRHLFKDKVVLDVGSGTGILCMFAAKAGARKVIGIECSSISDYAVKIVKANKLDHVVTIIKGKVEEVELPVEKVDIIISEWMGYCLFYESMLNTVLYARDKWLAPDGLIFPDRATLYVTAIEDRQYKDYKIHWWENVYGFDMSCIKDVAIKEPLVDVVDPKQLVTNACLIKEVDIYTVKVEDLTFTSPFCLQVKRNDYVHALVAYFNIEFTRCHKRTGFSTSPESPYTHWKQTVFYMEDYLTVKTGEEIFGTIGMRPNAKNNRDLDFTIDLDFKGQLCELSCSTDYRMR
T2 sequence (O14744 whole entry): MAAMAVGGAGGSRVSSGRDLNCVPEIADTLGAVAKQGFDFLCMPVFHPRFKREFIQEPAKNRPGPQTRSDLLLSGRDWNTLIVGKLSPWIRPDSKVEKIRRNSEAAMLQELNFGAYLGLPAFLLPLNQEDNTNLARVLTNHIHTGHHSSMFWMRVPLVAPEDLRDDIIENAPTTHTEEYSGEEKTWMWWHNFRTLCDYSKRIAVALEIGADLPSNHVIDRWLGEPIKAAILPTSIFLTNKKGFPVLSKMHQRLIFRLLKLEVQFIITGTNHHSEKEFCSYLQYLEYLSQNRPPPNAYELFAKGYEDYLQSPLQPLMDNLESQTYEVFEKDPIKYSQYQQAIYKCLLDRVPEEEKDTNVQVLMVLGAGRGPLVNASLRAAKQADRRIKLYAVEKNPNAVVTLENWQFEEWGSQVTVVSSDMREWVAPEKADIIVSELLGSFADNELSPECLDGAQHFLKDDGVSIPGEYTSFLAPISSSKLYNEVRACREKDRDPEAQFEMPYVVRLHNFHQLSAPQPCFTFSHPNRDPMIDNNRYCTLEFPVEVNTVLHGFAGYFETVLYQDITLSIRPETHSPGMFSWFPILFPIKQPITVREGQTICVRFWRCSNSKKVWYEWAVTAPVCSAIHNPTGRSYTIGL
T2 sequence (Q9BQA1 whole entry partner): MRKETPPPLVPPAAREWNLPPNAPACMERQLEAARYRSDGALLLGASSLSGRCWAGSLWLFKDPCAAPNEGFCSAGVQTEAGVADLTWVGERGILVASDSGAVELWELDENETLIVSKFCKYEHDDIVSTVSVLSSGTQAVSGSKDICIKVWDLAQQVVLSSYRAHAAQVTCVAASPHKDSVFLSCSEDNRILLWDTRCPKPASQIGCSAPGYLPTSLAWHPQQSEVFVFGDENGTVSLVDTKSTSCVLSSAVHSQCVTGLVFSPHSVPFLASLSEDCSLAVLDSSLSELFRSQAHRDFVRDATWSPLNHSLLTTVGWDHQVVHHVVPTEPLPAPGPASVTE
T3 sequence (O14744 whole entry C449S): as the sequence (O14744 whole entry) above, with C449S counted along it
T3 sequence (Q9BQA1 whole entry partner): as the sequence (Q9BQA1 whole entry partner) above
T4 sequence (Q96LA8 whole entry): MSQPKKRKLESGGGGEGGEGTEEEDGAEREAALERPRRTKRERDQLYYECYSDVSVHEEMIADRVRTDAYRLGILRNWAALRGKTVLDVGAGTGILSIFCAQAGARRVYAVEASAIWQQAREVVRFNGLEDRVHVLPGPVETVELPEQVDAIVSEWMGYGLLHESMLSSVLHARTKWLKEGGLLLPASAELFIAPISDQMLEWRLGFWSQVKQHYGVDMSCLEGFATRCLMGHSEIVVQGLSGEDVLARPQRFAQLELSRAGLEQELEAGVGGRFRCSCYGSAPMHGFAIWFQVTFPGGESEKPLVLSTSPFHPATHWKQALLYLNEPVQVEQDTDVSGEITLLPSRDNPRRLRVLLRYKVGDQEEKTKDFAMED
T5 sequence (Q582G4 whole entry): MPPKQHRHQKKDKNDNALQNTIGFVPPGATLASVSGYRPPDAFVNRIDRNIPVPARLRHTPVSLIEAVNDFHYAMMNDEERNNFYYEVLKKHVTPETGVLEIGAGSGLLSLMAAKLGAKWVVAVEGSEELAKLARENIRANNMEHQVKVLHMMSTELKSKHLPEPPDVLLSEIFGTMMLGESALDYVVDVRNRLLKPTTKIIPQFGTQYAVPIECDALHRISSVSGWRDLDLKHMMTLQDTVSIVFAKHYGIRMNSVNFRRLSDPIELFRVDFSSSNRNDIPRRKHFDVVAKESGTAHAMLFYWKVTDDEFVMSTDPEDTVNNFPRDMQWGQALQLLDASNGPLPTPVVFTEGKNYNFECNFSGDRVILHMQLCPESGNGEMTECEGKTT

## N=C(NCCCSC[C@H]1O[C@@H](n2cnc3c(N)ncnc32)[C@H](O)[C@@H]1O)Nc1cccc(Br)c1 [Compound 6l, 1-(3-((((2S,3S,4R,5R)-5-(6-amino-9H-purin-9-yl)-3,4-dihydroxytetrahydrofuran-2-yl)methyl)thio)propyl)-3-(3-bromophenyl)guanidine]
PRMT1 [1]; H4-21 from 0.5 to 8 Km, SAM fixed at 10 µM
  inhibition pattern versus peptide substrate H4-21: noncompetitive
PRMT1 [1]; SAM from 0.5 to 8 Km, H4-21 fixed at 5 µM, listed as II757
  inhibition pattern versus SAM: competitively binds at the SAM binding site; also recorded: SAM-competitive inhibitor
PRMT5/MEP50 Complex
  IC50: 18.2 nM
PRMT5 (C449S)/MEP50
  IC50: 36.6 nM
PRMT6
  IC50: 30.5 nM
PRMT1 [2]; PRMT1 0.1 µM, substrate concentration at 4 Km (footnote a), n = 2, mean ± SD
  IC50: 90 ± 40 nM
PRMT1 [2]; SAHH-coupled assay, PRMT1, read-out: apparent Ki
  Ki: ~18 nM
PRMT1 [2]; calculated as Ki, app = IC50/(1 + [S]/Km), read-out: Ki, app
  Ki: 18 ± 8 nM
TbPRMT7
  activity against PRMT7: about 30%
SETD7
  selectivity over SETD7: over 1000 fold
G9a
  selectivity over G9a: over 1000 fold
